Data: patent US11370761B2, “Voltage-dependent T-type calcium channel inhibitor” (Nippon Chemiphar Co., Ltd., priority 2017, dated 2022)

How the values were obtained:
[1] = biological target: T1, human Cav3.2 channel (Homo sapiens, UniProt O95180); assay: Electrophysiological evaluation, automated whole-cell patch clamp of Cav3.2 channel current (Pharmacological Test 2); type: cell-based; conditions: for inhibition at 0.3 µM: read-out: Cav3.2 channel current inhibition rate in test compound of 0.3 μM (holding potential of −80 mV) (%); for inhibition at 3 µM: 3 μM test compound, holding potential −100 mV, read-out: Cav3.2 channel current inhibition rate in test compound of 3 μM (holding potential of −100 mV) (%)
T1 construct: expressed in transfected cells
T1 sequence (O95180 whole entry): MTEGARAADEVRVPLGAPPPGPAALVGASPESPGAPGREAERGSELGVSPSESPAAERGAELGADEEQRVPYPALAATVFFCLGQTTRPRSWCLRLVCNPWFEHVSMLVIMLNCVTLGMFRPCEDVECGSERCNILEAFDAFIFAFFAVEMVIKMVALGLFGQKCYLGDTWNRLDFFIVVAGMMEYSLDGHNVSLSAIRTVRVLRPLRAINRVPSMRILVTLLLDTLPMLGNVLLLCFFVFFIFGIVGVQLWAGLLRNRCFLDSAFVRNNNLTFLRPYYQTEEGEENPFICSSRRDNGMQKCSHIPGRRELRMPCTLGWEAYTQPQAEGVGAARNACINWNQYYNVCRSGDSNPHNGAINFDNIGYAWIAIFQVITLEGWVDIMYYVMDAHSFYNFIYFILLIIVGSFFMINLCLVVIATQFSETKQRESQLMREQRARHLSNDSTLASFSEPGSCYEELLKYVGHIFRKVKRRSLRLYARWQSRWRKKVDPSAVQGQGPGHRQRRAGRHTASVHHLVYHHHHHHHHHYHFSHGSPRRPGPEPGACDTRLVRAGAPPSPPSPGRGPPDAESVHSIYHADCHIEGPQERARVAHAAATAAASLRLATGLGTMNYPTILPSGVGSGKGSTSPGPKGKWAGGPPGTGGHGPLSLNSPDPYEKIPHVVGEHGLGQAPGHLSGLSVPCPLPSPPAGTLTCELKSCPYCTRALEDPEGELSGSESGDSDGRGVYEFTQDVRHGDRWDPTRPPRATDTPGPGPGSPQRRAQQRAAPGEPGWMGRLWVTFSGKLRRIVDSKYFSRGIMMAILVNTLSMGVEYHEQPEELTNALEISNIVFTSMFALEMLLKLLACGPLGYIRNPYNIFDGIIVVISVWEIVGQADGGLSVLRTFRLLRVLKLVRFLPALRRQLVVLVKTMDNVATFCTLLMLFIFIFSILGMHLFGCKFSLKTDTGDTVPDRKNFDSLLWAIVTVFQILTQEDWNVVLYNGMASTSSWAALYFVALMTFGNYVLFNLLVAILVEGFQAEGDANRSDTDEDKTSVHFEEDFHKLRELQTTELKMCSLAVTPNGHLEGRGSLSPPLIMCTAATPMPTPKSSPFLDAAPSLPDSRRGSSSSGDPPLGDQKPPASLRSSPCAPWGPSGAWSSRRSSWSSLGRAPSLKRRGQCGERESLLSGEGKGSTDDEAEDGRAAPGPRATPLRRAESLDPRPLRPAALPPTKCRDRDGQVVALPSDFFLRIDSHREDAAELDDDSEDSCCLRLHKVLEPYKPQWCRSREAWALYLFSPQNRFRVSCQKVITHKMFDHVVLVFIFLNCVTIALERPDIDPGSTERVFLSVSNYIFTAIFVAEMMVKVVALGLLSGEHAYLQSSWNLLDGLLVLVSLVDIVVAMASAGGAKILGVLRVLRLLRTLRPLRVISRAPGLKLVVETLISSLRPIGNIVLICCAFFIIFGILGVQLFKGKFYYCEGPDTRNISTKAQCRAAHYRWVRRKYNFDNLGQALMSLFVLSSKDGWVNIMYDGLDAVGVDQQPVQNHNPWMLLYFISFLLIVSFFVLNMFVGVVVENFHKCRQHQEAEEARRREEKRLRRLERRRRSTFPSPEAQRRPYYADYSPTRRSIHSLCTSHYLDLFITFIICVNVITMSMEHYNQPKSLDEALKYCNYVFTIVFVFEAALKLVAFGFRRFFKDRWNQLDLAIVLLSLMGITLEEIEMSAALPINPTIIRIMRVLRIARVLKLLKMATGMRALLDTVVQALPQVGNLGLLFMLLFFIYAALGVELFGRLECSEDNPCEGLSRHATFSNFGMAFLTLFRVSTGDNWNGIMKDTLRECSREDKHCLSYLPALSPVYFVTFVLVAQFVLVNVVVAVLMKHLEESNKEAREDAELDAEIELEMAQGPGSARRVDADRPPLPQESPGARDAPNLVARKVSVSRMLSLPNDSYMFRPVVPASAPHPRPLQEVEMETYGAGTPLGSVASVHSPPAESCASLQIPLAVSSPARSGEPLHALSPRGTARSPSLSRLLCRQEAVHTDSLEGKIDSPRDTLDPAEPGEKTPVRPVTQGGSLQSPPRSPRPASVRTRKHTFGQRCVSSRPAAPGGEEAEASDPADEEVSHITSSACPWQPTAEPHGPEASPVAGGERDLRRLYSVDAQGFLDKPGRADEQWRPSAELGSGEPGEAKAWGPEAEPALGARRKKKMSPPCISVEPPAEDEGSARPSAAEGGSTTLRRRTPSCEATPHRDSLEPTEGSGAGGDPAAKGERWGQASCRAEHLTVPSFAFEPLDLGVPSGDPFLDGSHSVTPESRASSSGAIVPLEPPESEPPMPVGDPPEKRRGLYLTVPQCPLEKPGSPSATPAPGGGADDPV
Protocol: The human Cav3.2 channel expressing stable cell line prepared by the test method (1) of Example 36 was seeded in a 10-cm dish using a DMEM medium containing 10% FBS, followed by culturing 37° C. for 24 hours under a 5% CO2 condition. The cells were detached using Accutase, and suspended in ice-cooled extracellular fluid for use. A Cav3.2 channel current was measured using an automated patch clamp system (Port-a-Patch; Nanion Technologies, EPC-10; HEKA Elektronik GmbH, Patchmaster; HEKA Elektronik GmbH) and buffers shown below, by a whole-cell patch-clamp method. The measurement of the Cav3.2 channel current was performed at room temperature, a measurement condition was a holding potential of −80 mV, a depolarization potential was −20 mV, a depolarization time was 100 msec, and a depolarization frequency was 10 sec. The Cav3.2 channel current was a peak value of an inward current observed at the time of depolarization to −20 mV.
The test compound was obtained by diluting a DMSO solution 1000 times with extracellular fluid to prepare a solution having a target concentration. The test compound was applied using an external perfusion system (Nanion Technologies) until the Cav3.2 channel current was stabilized, and a maximum of five concentrations from the low concentration side were cumulatively applied. An inhibition rate of the test compound was calculated from a change rate between a current value immediately before application of the test compound and the Cav3.2 channel current after application of the test compound (in a condition of holding potential of −80 mV, a concentration of the test compound was 0.3 μM, and in a condition of holding potential of −100 mV, a concentration of the test compound was 3 μM).
Extracellular fluid: 135 mM NaCl, 4 mM KCl, 1 mM MgCl2, 5 mM CaCl2, 5 mM D-Glucose, 10 mM HEPES, pH 7.4
Electrode internal fluid: 10 mM NaCl, 10 mM HEPES, 50 mM CsCl, 60 mM Cs-Fluoride, 20 mM EGTA, pH 7.2

[2] = biological target: T1, human Cav3.2 channel; assay: Intracellular calcium concentration measurement in human Cav3.2 channel expressing stable cell line (Pharmacological Test 1); type: cell-based; conditions: HEK293 cells stably expressing human Cav3.2, Fluo-4 AM fluorescence, KCl stimulation; read-out: Cav3.2 channel inhibitory action
Text: (1) Construction of Human Cav3.2 Channel Expressing Stable Cell Line
A sequence in which a HindIII site and a kozak sequence (GCCACC) was provided on a 5′ side of a human Cav3.2 channel open reading frame (ORF) gene and a KpnI site was provided on a 3′ side thereof was incorporated into pcDNA3.1(+) (Thermo Fisher Scientific #V790-20), and the resultant was transfected into a HEK293 cell (ATCC No. CRL-1573) according to a protocol of FuGENE (registered trademark) HD Transfection Reagent (Promega #E2311).
(2) Method of Measuring Intracellular Calcium Concentration
The human Cav3.2 channel expressing stable cell line prepared by the test method (1) was seeded in a 96-well plate using a Dulbecco's modified Eagle's medium (DMEM medium) containing 10% fetal bovine serum (FBS), followed by culturing 37° C. for 48 hours under a 5% CO2 condition. Thereafter, the medium was removed, and each well washed with an A buffer was treated with 80 μL of a fluorescent dye solution containing a liquid mixture of 22 μg of a calcium fluorescent indicator Fluo-4 AM (Dojindo Molecular Technologies, Inc., #F311), 20 μL of dimethyl sulfoxide (DMSO), 1 μL of 10% Pluronic F-127 (Thermo Fisher Scientific #P6866), and 4 mL of the A buffer. After being left to stand for 45 minutes at room temperature under a light shielding condition, the cells were washed with a B buffer. In DMSO having the same final concentration as the test compound as a negative control, and the test compound dissolved in DMSO to have a final concentration of 0.1%, each test compound concentration solution containing the B buffer was added to each well. The cells were left to stand for additional 15 minutes at room temperature under a light shielding condition, and were measured using microplate reader EnVision (PerkinElmer Co., Ltd.) by the following method. First, after measuring background fluorescence in each well, an ionophore was added, and baseline fluorescence was measured. Thereafter, B buffer containing added KCl at a concentration of 83.8 mM was added to each well, and an increase in fluorescence due to calcium influx caused by the stimulation was measured for 10 seconds. Inhibition percentage was calculated from the maximum fluorescence increase value from the baseline, and an IC50 value was calculated by plotting a logarithmic value of the test compound concentration and inhibition activity. The measurement was performed by observing fluorescence of 510 nm emitted when the cells were irradiated with excitation light of 485 nm.
A buffer: 140 mM NaCl, 5 mM KCl, 1 mM MgCl2, 0.5 mM CaCl2, 10 mM Glucose, 10 mM HEPES, pH 7.3
B buffer: potassium equilibrium potential: −92 mV

[3] = tested on: mouse partial sciatic nerve ligation (PSNL) model; assay: Mechanical allodynia in mouse partial sciatic nerve ligation (PSNL) model, von Frey filament test (Pharmacological Test 3); type: in vivo; conditions: 30 mg/kg orally administered
Protocol: A mouse PSNL model was prepared according to a method of Seltzer et al. A mouse was anesthetized by inhalation with isoflurane. A femoral region of the mouse was shaved and disinfected with isodine. Skin on a femur of the mouse was incised, fascia just below the skin was cut off, and muscle heads of musculus biceps femoris were divided. After confirmation of sciatic nerves just below the muscle, and the sciatic nerves were separated without damage. ½ to ⅓ of the sciatic nerve was penetrated by a needle with 8-0 silk and ligated. The skin was sutured and the mouse was reared for about 7 days. In surgery of a sham control mouse, only confirmation of the sciatic nerves was performed and then the skin was sutured.
A pain threshold was measured after moving the mice to a cage for measurement and waiting for the exploratory behavior to disappear. Regarding the pain threshold (paw withdrawal filament ((g)), soles of the mice were stimulated with von Frey filaments (Sttoelting Co.: TOUCH-TEST SENSORY EVLUATOR) having different stimulation intensities, and the presence or absence of avoidance response was observed. A 50% threshold was calculated by an up down method with reference to a method of Chaplan et al. (Quantitative assessment of tactile allodynia in the rat paw. J neurosci Methods, 53, 1994, 55 to 63). […]

[4] = 0.3 μM test compound, holding potential −80 mV, depolarization to −20 mV

| Structure (SMILES) | inhibition at 0.3 µM [1, 4] [%] | IC50 [2] [nM] | inhibition at 3 µM [1] [%] | Cav3.2 channel current inhibition rate in test compound of 0.3 μM (holding potential of −80 mV) (%) ([1]; 0.3 μM test compound, holding potential −80 mV, depolarization to −20 mV, 0.3 µM) | mechanical allodynia (pain threshold, von Frey filament test) compared to the vehicle group [3] |
| --- | --- | --- | --- | --- | --- |
| O=C(NC1(C(=O)Nc2ccc(C(F)(F)F)cc2)CC1)[C@H]1C[C@@H]1c1nc2ccccc2[nH]1 [Example 26, 1-((1S, 2S)-2-(1H-Benzo[d]imidazol-2-yl)cyclopropane-1-carboxamido)-N-(4-(trifluoromethyl)phenyl) cyclopropane-1-carboxamide] | 84 | ≤ 100 | – | – | statistically significantly suppressed |
| O=C(NC1(C(=O)Nc2ccc(OC(F)(F)F)cc2)CC1)[C@H]1C[C@@H]1c1nc2ccccc2[nH]1 [Example 24, 1-((1S, 2S)-2-(1H-Benzo[d]imidazol-2-yl)cyclopropane-1-carboxamido)-N-(4-(trifluoromethoxy)phenyl) cyclopropane-1-carboxamide] | 68 | ≤ 100 | – | – | – |
| CC(NC(=O)C1CC1c1nc2ccccc2[nH]1)C(=O)Nc1ccc(C(F)(F)F)cc1 (single isomer, unassigned) [Example 4A, Trans-2-(1H-benzo[d]imidazol-2-yl)-N-(1-oxo-1-((4-(trifluoromethyl)phenyl)amino)propan-2-yl) cyclopropane-1-carboxamide] | 43 | 100 to 1000 | 38 | – | – |
| CC(NC(=O)C1CC1c1nc2ccccc2[nH]1)C(=O)Nc1ccc(C(C)(C)C)cc1 (single isomer, unassigned) [Example 7A, Trans-2-(1H-benzo[d]imidazol-2-yl)-N-(1-((4-(tert-butyl)phenyl)amino)-1-oxopropan-2-yl) cyclopropane-1-carboxamide] | 30 | 100 to 1000 | – | – | – |
| O=C(CNC(=O)[C@@H]1C[C@H]1c1nc2ccccc2[nH]1)Nc1ccc(C(F)(F)F)cc1 (relative stereo) [Example 20, Trans-2-(1H-benzo[d]imidazol-2-yl)-N-(2-oxo-2-((4-(trifluoromethyl)phenyl)amino)ethyl) cyclopropane-1-carboxamide] | 39 | 100 to 1000 | 32 | – | – |
| CC(NC(=O)C1CC1c1nc2ccccc2[nH]1)C(=O)Nc1cnc(Br)cn1 (single isomer, unassigned) [Example 18A, Trans-2-(1H-benzo[d]imidazol-2-yl)-N-(1-((5-bromopyrazin-2-yl)amino)-1-oxopropan-2-yl) cyclopropane-1-carboxamide] | 46 | 100 to 1000 | – | – | – |
| O=C(NC1(C(=O)Nc2cccc(C(F)(F)F)c2)CC1)[C@H]1C[C@@H]1c1nc2ccccc2[nH]1 [Example 22, 1-((1S, 2S)-2-(1H-Benzo[d]imidazol-2-yl)cyclopropane-1-carboxamido)-N-(3-(trifluoromethyl)phenyl) cyclopropane-1-carboxamide] | 95 | ≤ 100 | – | – | – |

Second part, led by results:

| inhibition at 0.3 µM [1, 4] [%] | IC50 [2] [nM] | inhibition at 3 µM [1] [%] | Cav3.2 channel current inhibition rate in test compound of 0.3 μM (holding potential of −80 mV) (%) ([1]; 0.3 μM test compound, holding potential −80 mV, depolarization to −20 mV, 0.3 µM) | Structure (SMILES) | mechanical allodynia (pain threshold, von Frey filament test) compared to the vehicle group [3] |
| --- | --- | --- | --- | --- | --- |
| 51 | 100 to 1000 | 41 | – | O=C(NC1(C(=O)Nc2ccc(C(F)(F)F)cc2)CC1)[C@@H]1C[C@H]1c1nc2ccccc2[nH]1 (relative stereo) [Example 21, Trans-1-(2-(1H-benzo[d]imidazol-2-yl)cyclopropane-1-carboxamido)-N-(4-(trifluoromethyl)phenyl) cyclopropane-1-carboxamide] | – |
| 74 | 100 to 1000 | 32 | – | CC(NC(=O)C1CC1c1nc2ccccc2[nH]1)C(=O)Nc1ccc(C(F)(F)F)nc1 (single isomer, unassigned) [Example 5A, Trans-2-(1H-benzo[d]imidazol-2-yl)-N-(1-oxo-1-((6-(trifluoromethyl)pyridin-3-yl)amino)propan-2-yl) cyclopropane-1-carboxamide] | statistically significantly suppressed |
| 86 | 100 to 1000 | – | – | CCCc1ccc(NC(=O)C(C)NC(=O)C2CC2c2nc3ccccc3[nH]2)cc1 (single isomer, unassigned) [Example 1A, Trans-2-(1H-benzo[d]imidazol-2-yl)-N-(1-oxo-1-((4-propylphenyl)amino)propan-2-yl) cyclopropane-1-carboxamide] | – |
| – | 100 to 1000 | – | 23 | CC(NC(=O)C1CC1c1nc2ccccc2[nH]1)C(=O)Nc1ccc(C(F)(F)F)cc1 (single isomer, unassigned) [Example 4B, Trans-2-(1H-benzo[d]imidazol-2-yl)-N-(1-oxo-1-((4-(trifluoromethyl)phenyl)amino)propan-2-yl) cyclopropane-1-carboxamide] | – |
